Source: ChEMBL document CHEMBL4706551, “Rational design of new multitarget histamine H receptor ligands as potential candidates for treatment of Alzheimer's disease” (Eur J Med Chem, 2020)
Activity calls are given as the source filed them. The rule behind the calls is not given here.

Key:
[1] = biological target: T1, Amine oxidase [flavin-containing] B (Homo sapiens, UniProt P27338); test: biochemical; type: cell-based, BTI
T1 sequence (P27338 whole entry): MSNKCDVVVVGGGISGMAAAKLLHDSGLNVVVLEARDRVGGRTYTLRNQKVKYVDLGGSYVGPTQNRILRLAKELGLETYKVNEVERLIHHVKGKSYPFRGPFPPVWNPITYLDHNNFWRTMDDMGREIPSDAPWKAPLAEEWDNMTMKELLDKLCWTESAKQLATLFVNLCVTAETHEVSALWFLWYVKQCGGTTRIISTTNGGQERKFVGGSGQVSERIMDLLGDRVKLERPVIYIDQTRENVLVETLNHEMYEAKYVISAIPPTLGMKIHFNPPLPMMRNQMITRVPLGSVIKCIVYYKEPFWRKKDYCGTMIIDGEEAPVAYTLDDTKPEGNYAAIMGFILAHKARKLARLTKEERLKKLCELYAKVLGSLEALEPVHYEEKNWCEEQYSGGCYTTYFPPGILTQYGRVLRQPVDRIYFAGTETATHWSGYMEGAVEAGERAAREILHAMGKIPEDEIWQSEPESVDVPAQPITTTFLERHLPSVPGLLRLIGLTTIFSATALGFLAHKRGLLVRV
Description: Inhibition of recombinant human MAO-B expressed in baculovirus infected BTI cells using p-tyramine as substrate by fluorometric assay

[2] = biological target: T2, MAO-A (Homo sapiens, UniProt P21397); test: Inhibition of recombinant human MAO-A expressed in baculovirus infected BTI cells at 10 uM using p-tyramine as substrate by fluorometric assay relative to control; details: probe p-tyramine
T2 sequence (P21397 whole entry): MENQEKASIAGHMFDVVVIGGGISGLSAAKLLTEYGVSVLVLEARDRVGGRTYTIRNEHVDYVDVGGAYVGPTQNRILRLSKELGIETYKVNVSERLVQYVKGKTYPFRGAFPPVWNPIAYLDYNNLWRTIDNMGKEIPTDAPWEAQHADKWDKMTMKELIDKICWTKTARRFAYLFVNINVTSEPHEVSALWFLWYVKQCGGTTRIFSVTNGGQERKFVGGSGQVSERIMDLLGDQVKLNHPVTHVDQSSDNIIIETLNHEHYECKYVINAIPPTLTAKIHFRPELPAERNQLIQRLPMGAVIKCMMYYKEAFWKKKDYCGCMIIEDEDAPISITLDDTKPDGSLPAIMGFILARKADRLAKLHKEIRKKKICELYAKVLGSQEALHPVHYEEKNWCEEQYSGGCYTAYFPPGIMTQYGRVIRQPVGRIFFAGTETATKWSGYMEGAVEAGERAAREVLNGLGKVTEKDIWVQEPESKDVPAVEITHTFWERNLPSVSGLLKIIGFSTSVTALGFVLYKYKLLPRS

[3] = biological target: Cholinesterase (Equus caballus, UniProt P81908)
Cholinesterase (Equus caballus, UniProt P81908), sequence (P81908 whole entry): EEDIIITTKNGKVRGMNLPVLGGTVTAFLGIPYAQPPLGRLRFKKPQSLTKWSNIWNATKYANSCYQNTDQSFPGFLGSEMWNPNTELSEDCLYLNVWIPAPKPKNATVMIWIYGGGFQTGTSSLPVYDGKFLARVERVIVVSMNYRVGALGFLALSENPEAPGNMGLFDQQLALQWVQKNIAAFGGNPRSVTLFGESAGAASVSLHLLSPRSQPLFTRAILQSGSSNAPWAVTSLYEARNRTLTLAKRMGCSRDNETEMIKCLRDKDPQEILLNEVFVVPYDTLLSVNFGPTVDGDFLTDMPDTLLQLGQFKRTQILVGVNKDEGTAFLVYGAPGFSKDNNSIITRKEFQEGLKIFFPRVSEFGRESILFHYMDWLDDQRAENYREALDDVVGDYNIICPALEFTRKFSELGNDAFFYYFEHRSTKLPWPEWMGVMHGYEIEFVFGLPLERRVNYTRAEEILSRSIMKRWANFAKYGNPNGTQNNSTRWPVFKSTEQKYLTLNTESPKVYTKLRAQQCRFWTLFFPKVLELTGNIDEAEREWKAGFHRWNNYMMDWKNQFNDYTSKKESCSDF
Description: Inhibition of equine serum BChE using BTCI as substrate incubated for 5 mins followed by substrate addition and measured after 5 mins by spectrophotometric based Ellman's method

[4] = biological target: Histamine H3 receptor (Homo sapiens, UniProt Q9Y5N1); test: biochemical
Histamine H3 receptor, sequence (Q9Y5N1 whole entry): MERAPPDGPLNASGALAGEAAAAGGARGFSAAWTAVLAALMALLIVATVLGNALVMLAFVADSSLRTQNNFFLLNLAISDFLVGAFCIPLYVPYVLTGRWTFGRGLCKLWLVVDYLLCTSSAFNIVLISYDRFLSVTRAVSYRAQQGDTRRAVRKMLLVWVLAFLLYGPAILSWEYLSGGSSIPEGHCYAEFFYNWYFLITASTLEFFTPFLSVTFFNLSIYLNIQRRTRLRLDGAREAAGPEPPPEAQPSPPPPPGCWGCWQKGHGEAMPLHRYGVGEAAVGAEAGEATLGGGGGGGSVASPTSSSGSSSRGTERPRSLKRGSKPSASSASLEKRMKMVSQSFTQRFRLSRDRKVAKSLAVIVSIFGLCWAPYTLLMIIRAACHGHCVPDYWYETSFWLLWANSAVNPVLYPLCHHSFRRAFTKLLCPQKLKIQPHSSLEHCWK
Description: Displacement of [3H]N-alpha-methylhistamine from recombinant human histamine H3 receptor expressed in CHO-K1 cells by microbeta scintillation analysis

[5] = biological target: T2, MAO-A; test: in vitro; details: probe p-tyramine
Description: Inhibition of recombinant human MAO-A expressed in baculovirus infected BTI cells at 1 uM using p-tyramine as substrate by fluorometric assay relative to control

[6] = biological target: T3, Acetylcholinesterase (Electrophorus electricus, UniProt O42275)
T3 sequence (O42275 whole entry): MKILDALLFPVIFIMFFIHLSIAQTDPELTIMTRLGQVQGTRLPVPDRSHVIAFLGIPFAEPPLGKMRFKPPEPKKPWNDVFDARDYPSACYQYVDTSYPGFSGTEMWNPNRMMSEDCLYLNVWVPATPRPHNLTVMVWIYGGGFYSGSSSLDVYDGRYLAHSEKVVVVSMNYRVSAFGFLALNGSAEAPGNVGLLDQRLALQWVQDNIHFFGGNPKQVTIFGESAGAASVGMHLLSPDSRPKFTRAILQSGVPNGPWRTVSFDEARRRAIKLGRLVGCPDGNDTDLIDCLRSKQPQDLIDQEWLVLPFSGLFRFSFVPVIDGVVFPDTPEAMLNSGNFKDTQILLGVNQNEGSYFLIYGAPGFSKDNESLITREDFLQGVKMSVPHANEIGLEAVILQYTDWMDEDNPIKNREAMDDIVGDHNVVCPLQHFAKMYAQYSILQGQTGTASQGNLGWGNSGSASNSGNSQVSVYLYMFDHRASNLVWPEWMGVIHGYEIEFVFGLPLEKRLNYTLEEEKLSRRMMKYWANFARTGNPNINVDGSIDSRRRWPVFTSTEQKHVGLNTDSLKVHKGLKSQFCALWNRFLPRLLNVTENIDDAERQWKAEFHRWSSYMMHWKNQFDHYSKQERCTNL
Description: Inhibition of Electric eel AChE using ATCI as substrate incubated for 5 mins followed by substrate addition and measured after 5 mins by spectrophotometric based Ellman's method

[7] = system: Mus musculus; test: (§1) Analgesic activity in formalin-induced nociception CD-1 mouse model assessed as reduction in pain behaviour by measuring less licking of formalin injected hind paw compound administered intraperitoneally prior to formalin induction and measured during early phase (0 to 5 mins after formalin injection) by formalin test; type: functional; details: CD-1, ip, time 0-5 min
[8] = biological target: Acetylcholinesterase (Electrophorus electricus) (UniProt O42275); test: Non-competitive inhibition of Electric eel AChE using ATCI as substrate incubated for 5 mins followed by substrate addition and measured after 5 mins by spectrophotometric based Lineweaver-Burk plot analysis; details: time 10.0 min
Acetylcholinesterase (Electrophorus electricus), sequence (O42275 24-633 limits assumed): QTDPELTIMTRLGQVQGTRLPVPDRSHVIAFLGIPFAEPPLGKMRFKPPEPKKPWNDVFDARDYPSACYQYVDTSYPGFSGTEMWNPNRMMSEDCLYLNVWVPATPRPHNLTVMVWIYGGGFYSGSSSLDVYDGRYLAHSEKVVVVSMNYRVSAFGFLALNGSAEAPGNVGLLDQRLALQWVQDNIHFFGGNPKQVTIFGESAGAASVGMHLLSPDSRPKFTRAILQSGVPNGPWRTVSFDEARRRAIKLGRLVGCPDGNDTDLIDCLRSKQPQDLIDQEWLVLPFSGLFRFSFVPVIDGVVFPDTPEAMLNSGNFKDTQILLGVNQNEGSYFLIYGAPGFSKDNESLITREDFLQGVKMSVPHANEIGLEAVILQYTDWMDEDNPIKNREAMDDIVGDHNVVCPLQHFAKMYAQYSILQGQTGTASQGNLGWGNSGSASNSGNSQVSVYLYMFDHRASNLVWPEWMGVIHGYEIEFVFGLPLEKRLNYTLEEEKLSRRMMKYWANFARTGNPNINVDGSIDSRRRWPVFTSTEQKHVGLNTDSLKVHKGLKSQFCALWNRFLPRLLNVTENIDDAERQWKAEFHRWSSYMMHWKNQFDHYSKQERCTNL

[9] = biological target: Cholinesterase (Equus caballus) (UniProt P81908); test: Non-competitive inhibition of equine serum BChE using BTCI as substrate incubated for 5 mins followed by substrate addition and measured after 5 mins by spectrophotometric based Cornish-Bowden plot analysis; type: cell-free; details: time 10.0 min
Cholinesterase (Equus caballus), sequence (P81908 whole entry): as the sequence (P81908 whole entry) above

[10] = biological target: Acetylcholinesterase (Homo sapiens, UniProt P22303); test: Inhibition of recombinant human AChE using ATCI as substrate incubated for 5 mins followed by substrate addition and measured after 5 mins by spectrophotometric based Ellman's method
Acetylcholinesterase (Homo sapiens, UniProt P22303), sequence (P22303 whole entry): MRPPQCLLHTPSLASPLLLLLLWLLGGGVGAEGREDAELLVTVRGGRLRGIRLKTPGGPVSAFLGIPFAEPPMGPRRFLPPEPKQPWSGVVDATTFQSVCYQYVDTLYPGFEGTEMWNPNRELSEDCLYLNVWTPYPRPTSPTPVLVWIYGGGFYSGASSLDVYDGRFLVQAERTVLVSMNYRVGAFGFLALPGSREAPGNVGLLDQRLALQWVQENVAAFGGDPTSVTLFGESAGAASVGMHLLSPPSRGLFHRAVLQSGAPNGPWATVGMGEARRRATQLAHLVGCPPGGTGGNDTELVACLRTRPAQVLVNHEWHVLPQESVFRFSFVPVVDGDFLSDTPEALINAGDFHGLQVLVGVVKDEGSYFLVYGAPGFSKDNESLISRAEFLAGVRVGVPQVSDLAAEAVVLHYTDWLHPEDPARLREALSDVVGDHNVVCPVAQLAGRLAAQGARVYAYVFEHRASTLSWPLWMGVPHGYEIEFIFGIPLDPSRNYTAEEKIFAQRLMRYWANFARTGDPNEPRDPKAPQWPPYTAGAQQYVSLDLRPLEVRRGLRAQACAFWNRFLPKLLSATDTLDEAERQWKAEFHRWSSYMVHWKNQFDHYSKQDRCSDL

[11] = biological target: Cholinesterase (Homo sapiens, UniProt P06276)
Cholinesterase (Homo sapiens, UniProt P06276), sequence (P06276 whole entry): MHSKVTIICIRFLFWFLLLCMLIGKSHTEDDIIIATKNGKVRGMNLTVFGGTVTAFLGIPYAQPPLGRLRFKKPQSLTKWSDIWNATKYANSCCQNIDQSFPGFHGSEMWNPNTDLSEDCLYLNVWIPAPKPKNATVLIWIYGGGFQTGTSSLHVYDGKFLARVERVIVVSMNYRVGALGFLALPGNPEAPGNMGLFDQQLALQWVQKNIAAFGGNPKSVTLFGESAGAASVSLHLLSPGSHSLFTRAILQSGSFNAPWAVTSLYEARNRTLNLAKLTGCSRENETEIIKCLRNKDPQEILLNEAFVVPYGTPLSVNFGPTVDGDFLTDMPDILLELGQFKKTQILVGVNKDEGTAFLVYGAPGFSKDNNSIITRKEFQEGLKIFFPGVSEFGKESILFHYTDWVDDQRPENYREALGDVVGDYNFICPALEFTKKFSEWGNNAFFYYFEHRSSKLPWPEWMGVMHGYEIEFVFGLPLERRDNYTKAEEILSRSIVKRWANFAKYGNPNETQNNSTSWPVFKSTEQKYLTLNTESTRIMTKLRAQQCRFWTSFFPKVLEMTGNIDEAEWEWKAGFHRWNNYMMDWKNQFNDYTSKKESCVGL
Description: Inhibition of human BuChE by spectrophotometric based Ellman's method

[12] = system: Rattus norvegicus; test: Memory enhancement effect in dizocilpine-induced Wistar (Krf:WI) rat model of amnesia assessed as decrease in transfer latency time at 1.25 to 5 mg/kg, ip measured after 30 to 45 mins by elevated plus maze test; type: functional, organism-based; details: dose 1.25-5 mg/kg, time 30-45 min
[13] = system: Rattus norvegicus; test: Memory enhancement effect in dizocilpine-induced Wistar (Krf:WI) rat model of amnesia assessed as increase in step through latency at 1.25 to 5 mg/kg, ip measured after 30 to 45 mins by step-through passive avoidance test; type: functional, organism-based; details: dose 1.25-5 mg/kg, time 30-45 min
[14] = biological target: Acetylcholinesterase (Electrophorus electricus) (UniProt O42275); test: Non-competitive inhibition of Electric eel AChE using ATCI as substrate incubated for 5 mins followed by substrate addition and measured after 5 mins by spectrophotometric based Cornish-Bowden plot analysis; details: time 10.0 min
[15] = system: Mus musculus; test: as §1, with “late” for “early”, “(15” for “(0”, “30” for “5”; type: functional; details: CD-1, ip, time 15-30 min
[16] = biological target: Cholinesterase (Equus caballus) (UniProt P81908); test: Non-competitive inhibition of equine serum BChE using BTCI as substrate incubated for 5 mins followed by substrate addition and measured after 5 mins by spectrophotometric based Lineweaver-Burk plot analysis; type: cell-free; details: time 10.0 min
[17] = in vitro; details: PAMPA, pH 7.4
Description: Permeability of compound in PBS buffer assessed as permeability coefficient at pH 7.4 at 200 uM incubated for 5 hrs by PAMPA based LC-MS analysis

[18] = biological target: T3, Acetylcholinesterase; test: Inhibition of Electric eel AChE using ATCI as substrate preincubated with enzyme for 60 mins followed by substrate addition and measured for 120 secs by spectrophotometric based Ellman's method

| SMILES | IC50 [1] | inhibition at 10 µM [2] | IC50 [3] | Ki [4] | inhibition at 1 µM [5] | IC50 [6] | other results |
| --- | --- | --- | --- | --- | --- | --- | --- |
| CC1CCCN(CCCCCOc2ccc3oc4cc(Cl)ccc4c(=O)c3c2)C1 (stereo unspecified) | 1980 nM | < 50% | 2830 nM | 56 nM | 11% | 353 nM |  |
| O=c1c2ccc(Cl)cc2oc2ccc(OCCCCCCN3CCCCCC3)cc12 | 975 nM | < 50% | 1240 nM | 602 nM | 5% | 235 nM |  |
| CC1CCN(CCCCCCOc2ccc3oc4cc(Cl)ccc4c(=O)c3c2)CC1 | 1640 nM | < 50% | 1510 nM | 520 nM | 37% | 561 nM |  |
| O=c1c2cc(Cl)ccc2oc2ccc(OCCCCCN3CCCCC3)cc12 | 756 nM | < 50% | 983 nM | 150 nM | 5% | 238 nM |  |
| O=c1c2ccccc2oc2ccc(OCCCCCN3CCCCC3)cc12 | 1500 nM | < 50% | 2540 nM | 172 nM | 6% | 622 nM |  |
| CC1CCCN(CCCCCCOc2ccc3oc4ccccc4c(=O)c3c2)C1 (stereo unspecified) | 1550 nM | < 50% | 1150 nM | 100 nM | 4% | 387 nM |  |
| CC1CCN(CCCCCOc2ccc3oc4ccc(Cl)cc4c(=O)c3c2)CC1 | 673 nM | < 50% | 1100 nM | 140 nM | 5% | 386 nM |  |
| O=c1c2ccccc2oc2ccc(OCCCCCCN3CCCCC3)cc12 | 939 nM | < 50% | 2000 nM | 1060 nM | 4% | 358 nM |  |
| O=c1c2ccccc2oc2ccc(OCCCCCCN3CCCCCC3)cc12 | 385 nM | < 50% | 605 nM | 496 nM | 3% | 308 nM |  |
| O=c1c2ccc(Cl)cc2oc2ccc(OCCCCCCN3CCCCC3)cc12 | 946 nM | < 50% | 1980 nM | 203 nM | 8% | 378 nM |  |
| O=c1c2cc(Cl)ccc2oc2ccc(OCCCCCCN3CCCCCC3)cc12 | 1390 nM | < 50% | 545 nM | 238 nM | 23% | 270 nM |  |
| O=c1c2ccc(Cl)cc2oc2ccc(OCCCCCN3CCCCCC3)cc12 | 2110 nM | < 50% | 1280 nM | 86 nM | 2% | 314 nM |  |
| CC1CCN(CCCCCOc2ccc3oc4ccccc4c(=O)c3c2)CC1 | 1860 nM | < 50% | 1090 nM | 110 nM | 1% | 697 nM |  |
| C#CCN(C)CCCOc1ccc(Cl)cc1Cl [CLORGILINE] |  |  |  |  | 1.8% |  |  |
| CC1CCN(CCCCCOc2ccc3oc4cc(Cl)ccc4c(=O)c3c2)CC1 | 1540 nM | < 50% | 1610 nM | 448 nM | 22% | 421 nM |  |
| Clc1ccc(CCCOCCCN2CCCCC2)cc1 [PITOLISANT] |  |  |  |  | 9% |  |  |
| O=c1c2cc(Cl)ccc2oc2ccc(OCCCCCCN3CCCCC3)cc12 | 1820 nM | < 50% | 954 nM | 282 nM | 8% | 620 nM |  |
| CC1CCCN(CCCCCCOc2ccc3oc4ccc(Cl)cc4c(=O)c3c2)C1 (stereo unspecified) | 717 nM | < 50% | 1470 nM | 436 nM | 28% | 307 nM |  |
| CC1CCCN(CCCCCCOc2ccc3oc4cc(Cl)ccc4c(=O)c3c2)C1 (stereo unspecified) | 1830 nM | < 50% | 2040 nM | 1100 nM | 42% | 384 nM |  |
| CC1CCCN(CCCCCOc2ccc3oc4ccccc4c(=O)c3c2)C1 (stereo unspecified) | 4200 nM | < 50% | 978 nM | 156 nM | 1% | 342 nM |  |
| O=c1c2cc(Cl)ccc2oc2ccc(OCCCCCN3CCCCCC3)cc12 | 897 nM | < 50% | 394 nM | 100 nM | 12% | 136 nM | ED50 [7]: 27.3 mg/kg; inhibition [8]: Active; inhibition [9]: Active; IC50 [10]: 120 nM; IC50 [11]: 1590 nM; Activity [12]: inactive; Activity [13]: inactive; inhibition [14]: Active; ED50 [15]: 22.5 mg/kg; inhibition [16]: Active; Papp at 5 h, 200 µM [17]: 2.2 ×10⁻⁶ cm/s |
| O=c1c2ccccc2oc2cc(OCCCCCN3CCCCC3)cc(O)c12 |  |  |  |  |  |  | IC50 [18]: 460 nM |
| CC1CCN(CCCCCCOc2ccc3oc4ccc(Cl)cc4c(=O)c3c2)CC1 | 720 nM | < 50% | 899 nM | 465 nM | 28% | 525 nM |  |
| CC1CCCN(CCCCCOc2ccc3oc4ccc(Cl)cc4c(=O)c3c2)C1 (stereo unspecified) | 665 nM | < 50% | 685 nM | 148 nM | 2% | 691 nM |  |
| CC1CCN(CCCCCCOc2ccc3oc4ccccc4c(=O)c3c2)CC1 | 856 nM | < 50% | 965 nM | 97 nM | 6% | 406 nM |  |
